Measurements as given in patent US9598423B2 (BRISTOL-MYERS SQUIBB COMPANY, priority 2013, dated 2017).

Key:
[1] = biological target: CK1ε (Homo sapiens (Human), UniProt P49674); assay: CK1ε kinase assay (Caliper LABCHIP electrophoretic separation of fluoresceinated peptide substrate and product); type: biochemical; conditions: 200 pM CK1ε, 50 μM ATP, 1.5 μM peptide substrate, 22 hours at room temperature; read-out: CK1ε (IC50)
Summary of the method: (§1)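 Compounds, taken from 10 mM DMSO stocks, are titrated at eleven concentrations. Kinase reactions proceed for 22 hours at room temperature and are quenched with EDTA. Substrate and product are resolved electrophoretically, and IC50 values are fitted by non-linear regression.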

[2] = biological target: CK1δ (Homo sapiens (Human), UniProt P48730); assay: CK1δ kinase assay (Caliper LABCHIP electrophoretic separation of fluoresceinated peptide substrate and product); type: biochemical; conditions: 200 pM CK1δ, 50 μM ATP, 1.5 μM peptide substrate, 22 hours at room temperature; read-out: CK1δ (IC50)
Summary of the method: as §1

CK1δ, sequence (P48730 whole entry): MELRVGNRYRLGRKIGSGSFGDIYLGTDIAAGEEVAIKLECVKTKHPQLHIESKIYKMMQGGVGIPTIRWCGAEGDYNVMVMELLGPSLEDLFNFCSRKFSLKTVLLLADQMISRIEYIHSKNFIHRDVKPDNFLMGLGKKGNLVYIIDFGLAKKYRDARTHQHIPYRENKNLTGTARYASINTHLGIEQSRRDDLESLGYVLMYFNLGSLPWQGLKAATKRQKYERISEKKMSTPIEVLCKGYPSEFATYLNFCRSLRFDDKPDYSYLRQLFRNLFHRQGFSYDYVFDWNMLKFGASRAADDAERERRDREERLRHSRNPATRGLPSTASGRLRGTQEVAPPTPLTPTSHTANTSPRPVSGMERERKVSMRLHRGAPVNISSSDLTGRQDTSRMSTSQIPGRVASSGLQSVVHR
CK1ε, sequence (P49674 whole entry): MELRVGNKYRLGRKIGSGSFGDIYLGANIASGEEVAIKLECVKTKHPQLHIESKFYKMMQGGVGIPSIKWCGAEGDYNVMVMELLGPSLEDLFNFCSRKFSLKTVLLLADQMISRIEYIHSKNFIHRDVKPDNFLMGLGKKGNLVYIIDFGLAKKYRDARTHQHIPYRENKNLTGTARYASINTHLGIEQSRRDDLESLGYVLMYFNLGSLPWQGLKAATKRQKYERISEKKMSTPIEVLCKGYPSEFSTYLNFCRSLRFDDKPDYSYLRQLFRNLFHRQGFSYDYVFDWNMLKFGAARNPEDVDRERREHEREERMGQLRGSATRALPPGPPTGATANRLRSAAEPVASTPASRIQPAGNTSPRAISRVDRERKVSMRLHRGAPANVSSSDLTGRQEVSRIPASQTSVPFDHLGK

Compound	IC50 [1]	IC50 [2]
NC(=O)c1c(-c2cccc(Cl)c2)nn2c1CN(C(=O)Nc1ccc(N3CCCCC3)cc1)C[C@@H]2CF [Compound A11, (R)-2-(3-Chlorophenyl)-7-(fluoromethyl)-N^5-(4-(piperidin-1-yl)phenyl)-6,7-dihydropyrazolo[1,5-a]pyrazine-3,5(4H)-dicarboxamide]	0.01 to 10 nM	0.01 to 10 nM
N#Cc1ccc(NC(=O)N2Cc3c(C(N)=O)c(-c4ccc(F)c(Cl)c4)nn3[C@H](C(F)F)C2)cc1F [Compound A22, (S)-2-(3-Chloro-4-fluorophenyl)-N^5-(4-cyano-3-fluorophenyl)-7-(difluoromethyl)-6,7-dihydropyrazolo[1,5-a]pyrazine-3,5(4H)-dicarboxamide]	0.01 to 10 nM	0.01 to 10 nM
N#Cc1ccc(NC(=O)N2Cc3c(C(N)=O)c(-c4ccc(F)c(Cl)c4)nn3C3(C2)CC(F)(F)C3)cc1 [Compound A36, 2′-(3-Chloro-4-fluorophenyl)-N^5′-(4-cyanophenyl)-3,3-difluoro-4′H-spiro[cyclobutane-1,7′-pyrazolo[1,5-a]pyrazine]-3′,5′(6′H)-dicarboxamide]	0.01 to 10 nM	0.01 to 10 nM
Cc1cc(NC(=O)N2CCn3nc(-c4cccc(Cl)c4)c(C(N)=O)c3C2)ccc1C#N [Compound A38, 2-(3-Chlorophenyl)-N^5-(4-cyano-3-methylphenyl)-6,7-dihydropyrazolo[1,5-a]pyrazine-3,5(4H)-dicarboxamide]	0.01 to 10 nM	0.01 to 10 nM
COc1cc(NC(=O)N2CCn3nc(-c4cccc(Cl)c4)c(C(N)=O)c3C2)ccc1C#N [Compound A40, 2-(3-Chlorophenyl)-N^5-(4-cyano-3-methoxyphenyl)-6,7-dihydropyrazolo[1,5-a]pyrazine-3,5(4H)-dicarboxamide]	0.01 to 10 nM	0.01 to 10 nM
CC(C)(C)c1cc(NC(=O)N2CCn3nc(-c4cccc(Cl)c4)c(C(N)=O)c3C2)ccc1C#N [Compound A42, N^5-(3-(tert-Butyl)-4-cyanophenyl)-2-(3-chlorophenyl)-6,7-dihydropyrazolo[1,5-a]pyrazine-3,5(4H)-dicarboxamide]	0.01 to 10 nM	0.01 to 10 nM
N#Cc1ccc(NC(=O)N2CCn3nc(-c4ccc(F)c(Cl)c4)c(C(N)=O)c3C2)cc1N1CCOCC1 [Compound A49, 2-(3-Chloro-4-fluorophenyl)-N^5-(4-cyano-3-morpholinophenyl)-6,7-dihydropyrazolo[1,5-a]pyrazine-3,5(4H)-dicarboxamide]	0.01 to 10 nM	0.01 to 10 nM
N#Cc1ccc(NC(=O)N2CCn3nc(-c4ccc(F)c(Cl)c4)c(C(N)=O)c3C2)cc1C1CC1 [Compound A50, 2-(3-Chloro-4-fluorophenyl)-N^5-(4-cyano-3-cyclopropylphenyl)-6,7-dihydropyrazolo[1,5-a]pyrazine-3,5(4H)-dicarboxamide]	0.01 to 10 nM	0.01 to 10 nM
CC(C)(C)c1cc(NC(=O)N2CCn3nc(-c4ccc(F)c(Cl)c4)c(C(N)=O)c3C2)ccc1C#N [Compound A51, N^5-(3-(tert-Butyl)-4-cyanophenyl)-2-(3-chloro-4-fluorophenyl)-6,7-dihydropyrazolo[1,5-a]pyrazine-3,5(4H)-dicarboxamide]	0.01 to 10 nM	0.01 to 10 nM
Cc1cc(NC(=O)N2CCn3nc(-c4cccc(F)c4)c(C(N)=O)c3C2)ccc1C#N [Compound A55, N^5-(4-Cyano-3-methylphenyl)-2-(3-fluorophenyl)-6,7-dihydropyrazolo[1,5-a]pyrazine-3,5(4H)-dicarboxamide]	0.01 to 10 nM	0.01 to 10 nM
CCOc1cc(Cl)cc(-c2nn3c(c2C(N)=O)CN(C(=O)Nc2ccc(C#N)c(Cl)c2)CC3)c1 [Compound A61, N^5-(3-Chloro-4-cyanophenyl)-2-(3-chloro-5-ethoxyphenyl)-6,7-dihydropyrazolo[1,5-a]pyrazine-3,5(4H)-dicarboxamide]	0.01 to 10 nM	0.01 to 10 nM
Cc1cc(Cl)cc(-c2nn3c(c2C(N)=O)CN(C(=O)Nc2ccc(C#N)cc2)CC3)c1 [Compound A62, 2-(3-Chloro-5-methylphenyl)-N^5-(4-cyanophenyl)-6,7-dihydropyrazolo[1,5-a]pyrazine-3,5(4H)-dicarboxamide]	0.01 to 10 nM	0.01 to 10 nM
CNC(=O)c1c(-c2ccc(F)c(Cl)c2)nn2c1CN(C(=O)Nc1ccc(C#N)cc1)CC2 [Compound A64, 2-(3-Chloro-4-fluorophenyl)-N^5-(4-cyanophenyl)-N3-methyl-6,7-dihydropyrazolo[1,5-a]pyrazine-3,5(4H)-dicarboxamide]	100 to 2000 nM	100 to 2000 nM
N#Cc1ccc(NC(=O)N2CCn3nc(-c4ccc(F)c(Cl)c4)c(C(=O)NC4CC4)c3C2)cc1 [Compound A65, 2-(3-Chloro-4-fluorophenyl)-N^5-(4-cyanophenyl)-N^3-cyclopropyl-6,7-dihydropyrazolo[1,5-a]pyrazine-3,5(4H)-dicarboxamide]	100 to 2000 nM	100 to 2000 nM
N#Cc1ccc(NC(=O)N2Cc3c(C(N)=O)c(-c4cccc(Cl)c4)nn3C3(CC3)C2)cc1 [Compound A86, 2′-(3-Chlorophenyl)-N^5′-(4-cyanophenyl)-4′H-spiro[cyclopropane-1,7′-pyrazolo[1,5-a]pyrazine]-3′,5′(6′H)-dicarboxamide]	0.01 to 10 nM	0.01 to 10 nM

More lines, now with the values ahead:

IC50 [1]	IC50 [2]	Compound
0.01 to 10 nM	0.01 to 10 nM	CC1CN(C(=O)Nc2ccc(C#N)cc2)Cc2c(C(N)=O)c(-c3cccc(Cl)c3)nn21 (stereo not drawn) [Compound A13, 2-(3-Chlorophenyl)-N^5-(4-cyanophenyl)-7-methyl-6,7-dihydropyrazolo[1,5-a]pyrazine-3,5(4H)-dicarboxamide]
0.01 to 10 nM	0.01 to 10 nM	N#Cc1ccc(NC(=O)N2CCn3nc(-c4cccc(Cl)c4)c(C(N)=O)c3C2)cc1OC(F)(F)F [Compound A39, 2-(3-Chlorophenyl)-N^5-(4-cyano-3-(trifluoromethoxy)phenyl)-6,7-dihydropyrazolo[1,5-a]pyrazine-3,5(4H)-dicarboxamide]
0.01 to 10 nM	0.01 to 10 nM	Cc1nc(-c2ccc(NC(=O)N3CCn4nc(-c5cccc(Cl)c5)c(C(N)=O)c4C3)cc2)cs1 [Compound A46, 2-(3-Chlorophenyl)-N^5-(4-(2-methylthiazol-4-yl)phenyl)-6,7-dihydropyrazolo[1,5-a]pyrazine-3,5(4H)-dicarboxamide]
0.01 to 10 nM	0.01 to 10 nM	Cc1ncc(-c2ccc(NC(=O)N3CCn4nc(-c5cccc(Cl)c5)c(C(N)=O)c4C3)cc2)o1 [Compound A47, 2-(3-Chlorophenyl)-N^5-(4-(2-methyloxazol-5-yl)phenyl)-6,7-dihydropyrazolo[1,5-a]pyrazine-3,5(4H)-dicarboxamide]
0.01 to 10 nM	0.01 to 10 nM	Cc1cc(NC(=O)N2CCn3nc(-c4ccc(F)c(Cl)c4)c(C(N)=O)c3C2)ccc1C#N [Compound A48, 2-(3-Chloro-4-fluorophenyl)-N^5-(4-cyano-3-methylphenyl)-6,7-dihydropyrazolo[1,5-a]pyrazine-3,5(4H)-dicarboxamide]
0.01 to 10 nM	0.01 to 10 nM	Cc1cc(Cl)cc(-c2nn3c(c2C(N)=O)CN(C(=O)Nc2ccc(C#N)c(Cl)c2)CC3)c1 [Compound A63, N^5-(3-Chloro-4-cyanophenyl)-2-(3-chloro-5-methylphenyl)-6,7-dihydropyrazolo[1,5-a]pyrazine-3,5(4H)-dicarboxamide]
